# According to PMC10287695, “Non-covalent inhibitors of thioredoxin glutathione reductase with schistosomicidal activity in vivo” (Nature Communications, 2023):
# Values joined by “and” are separate entries in the source; they are usually repeats but may differ in a detail not shown here. Equal entries are not always repeated.
# Key:
# TGR [1] = biological target: T1, TGR (Schistosoma mansoni, UniProt Q962Y6); experiment: Reversibility by jump dilution; format: biochemical; settings: for Inhibitor (rate), 0 min / % Activity, 0 min: [0, D0]: 15 min preincubation inhibitor + TGR + NADPH, diluted 1:100, then activity determined immediately; for Inhibitor (rate), 0 min / Inhibitor (rate), 60 min / Inhibitor (rate), -15: raw rate; for % Activity, 0 min / % Activity, 60 min / % Activity, -15: relative to DMSO; for Inhibitor (rate), 60 min / % Activity, 60 min: [60, D60]: 15 min preincubation inhibitor + TGR + NADPH, diluted 1:100, then activity determined after 60 min; for Inhibitor (rate), -15 / % Activity, -15: [-15]: 15 min preincubation inhibitor + TGR + NADPH, then activity determined, replicates; for % Activity (ID list) / % Inhibition (ID list): before dilution (-15)
# T1 construct: made in house
# T1 sequence (Q962Y6 1-598): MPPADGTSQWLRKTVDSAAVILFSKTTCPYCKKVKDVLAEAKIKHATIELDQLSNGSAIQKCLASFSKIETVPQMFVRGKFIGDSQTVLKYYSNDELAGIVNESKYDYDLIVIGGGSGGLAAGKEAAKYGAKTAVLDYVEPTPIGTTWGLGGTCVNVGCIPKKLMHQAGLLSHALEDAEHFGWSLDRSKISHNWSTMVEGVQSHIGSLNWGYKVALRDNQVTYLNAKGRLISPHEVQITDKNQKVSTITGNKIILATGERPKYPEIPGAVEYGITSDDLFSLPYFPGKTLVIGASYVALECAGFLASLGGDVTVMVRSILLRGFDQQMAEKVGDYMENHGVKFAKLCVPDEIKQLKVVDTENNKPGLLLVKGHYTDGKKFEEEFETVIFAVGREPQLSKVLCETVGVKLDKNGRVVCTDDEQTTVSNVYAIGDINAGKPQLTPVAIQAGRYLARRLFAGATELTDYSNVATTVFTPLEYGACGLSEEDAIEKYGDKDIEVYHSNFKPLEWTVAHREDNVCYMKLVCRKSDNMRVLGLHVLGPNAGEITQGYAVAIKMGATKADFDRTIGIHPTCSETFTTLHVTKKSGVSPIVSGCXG
# Description: A reaction of 370 nM TGR, 100 µM NADPH, and 250 µM inhibitor was incubated for 15 min at room temperature. A 100x dilution of the reaction was made and the activity was determined immediately and after 60 min.
# TGR [2] = biological target: T1, TGR; experiment: Time dependence of inhibition; format: biochemical; set-up: avg % inhib, 0.5 hr / avg % inhib, 1 hr / avg % inhib, 2 hr / avg % inhib, 3 hr / avg % inhib, 6 hr / avg % inhib, 24 hr: tested at 50 µM; settings: panel d Time Dependence; for avg % inhib, 0.5 hr / avg % inhib, 1 hr / avg % inhib, 2 hr / avg % inhib, 3 hr / avg % inhib, 6 hr / avg % inhib, 24 hr: average; for % inhib, 0.5 hr / % inhib, 1 hr / % inhib, 2 hr / % inhib, 3 hr / % inhib, 6 hr / % inhib, 24 hr: replicates
# Description: TGR was incubated at room temperature (up to 6 h) and at 4 °C for 6 to 24 h with 50 µM inhibitor and 100 µM NADPH for the indicated times. Then DTNB (3 mM) and NADPH (100 µM) were added, and the reaction was monitored at A412 for 5 min. The assay was done in triplicate.
# [3] = system: S. mansoni juvenile worms (21 days); experiment: Schistosomicidal activity ex vivo, juvenile worms (21 days); format: cell-based; settings: for viability at 5 µM / viability at 15 µM / viability at 30 µM: Schistosoma mansoni, 23 day S. mansoni worms, 48 HR; for viability at 5 µM: Conc. 5 µM; for viability at 15 µM: Conc. 15 µM; for viability at 30 µM: Conc. 30 µM; for LD50 ex vivo S. mansoni 21 days: juvenile worms, 48 h exposure
# Description: Three-week old, female Swiss-Webster mice obtained from the Charles River were housed in the Comparative Research Center of Rush University Medical Center. Mice were infected by percutaneous tail exposure to about 200 S. mansoni or 50 S. japonicum cercaria for adult worms and about 1000 cercaria for juvenile S. mansoni worms through natural transdermal penetration of the cercariae for 1 h[81].
# DMSO formulated compounds were diluted with phenol red free M199 medium or RPMI medium for NTS or juvenile and adult worms, respectively, at <1% DMSO final concentrations. NTS, juvenile and adult worms from overnight cultures were tested against compounds in triplicate. Controls were treated with DMSO alone or 5 µM AF as a positive control in appropriate medium. […] Schistosome viabilities in the presence of the compounds were assessed using this formula: % Viability = Averages of Test / Averages of DMSO Control x 100.
# [4] = Cytotoxicity in mammalian cells (Cell Titer Glo); format: cell-based; settings: African green monkey, Vero cells; for viability at 24 h, 5 µM: Conc. 5 µM; for viability at 24 h, 10 µM: Conc. 10 µM; for viability at 24 h, 25 µM: Conc. 25 µM; for viability at 24 h, 35 µM: Conc. 35 µM; for viability at 24 h, 50 µM: Conc. 50 µM
# Description: Following overnight incubation, formulated DMSO-compound stock solutions were diluted with DMEM at <1% DMSO final concentrations. […] Vero cells treated similarly with different concentrations of PZQ, MZM and AF (Cayman Chemicals) were used as positive controls.
# [5] = D0: diluted 1:100, activity determined immediately, list for plotting
# [6] = D60: diluted 1:100, activity determined after 60 min, list for plotting
smiles,measurement,setting,value
Cc1oc(-c2ccc3c(c2)OCO3)nc1CN[C@@H]1C[C@@H]2C[C@H]([C@H]1C)C2(C)C [Compound 1],"% Inhibition (ID list), D0",TGR [1]; [5],-3.0% and -6.3% and -11.0%
same,"% Inhibition (ID list), D60",TGR [1]; [6],-11.2% and -8.3% and -14.2%
same,"Inhibitor (rate), 0 min",TGR [1],0.04476 and 0.04528 and 0.04727
same,"% Activity, 0 min",TGR [1],96.9881% and 96.3404% and 109.043%
same,"Inhibitor (rate), 60 min",TGR [1],0.04331 and 0.04649 and 0.04721
same,"% Activity, 60 min",TGR [1],100.185% and 104.308% and 101.157%
same,"Inhibitor (rate), -15",TGR [1],0.02911 and 0.02756 and 0.02942
same,"% Activity, -15",TGR [1],84.4748% and 76.3012% and 82.9433%
same,% Activity (ID list),TGR [1]; list for plotting,84.5% and 76.3% and 82.9%
same,% Inhibition (ID list),TGR [1]; list for plotting,15.5% and 23.7% and 17.1%
same,"rate, 0.5 hr",TGR [2],0.0552 and 0.05671 and 0.05782
same,"avg % inhib, 0.5 hr",TGR [2],-1.077%
same,"% inhib, 0.5 hr",TGR [2],0.01811% and -0.5318% and -2.718%
same,"rate, 1 hr",TGR [2],0.04988 and 0.05076 and 0.05122
same,"avg % inhib, 1 hr",TGR [2],1.283%
same,"% inhib, 1 hr",TGR [2],2.919% and -0.8544% and 1.783%
same,"rate, 2 hr",TGR [2],0.046 and 0.04511 and 0.04817
same,"avg % inhib, 2 hr",TGR [2],0.9089%
same,"% inhib, 2 hr",TGR [2],-0.9879% and 3.652% and 0.06224%
same,"rate, 3 hr",TGR [2],0.03818 and 0.03843 and 0.03937
same,"avg % inhib, 3 hr",TGR [2],4.332%
same,"% inhib, 3 hr",TGR [2],4.359% and 4.498% and 4.139%
same,"rate, 6 hr",TGR [2],0.02323 and 0.02106 and 0.02443
same,"avg % inhib, 6 hr",TGR [2],12.8202%
same,"% inhib, 6 hr",TGR [2],11.8406% and 18.1182% and 8.502%
same,"rate, 24 hr",TGR [2],0.0142 and 0.01351 and 0.01414
same,"avg % inhib, 24 hr",TGR [2],28.9728%
same,"% inhib, 24 hr",TGR [2],24.2263% and 31.8365% and 30.8557%
same,viability at 5 µM,[3],69%
same,viability at 15 µM,[3],54.9%
same,viability at 30 µM,[3],46.4%
same,LD50 ex vivo S. mansoni 21 days,[3],26.3 ± 0.48 µM
same,"viability at 24 h, 5 µM",[4],94.7%
same,"viability at 24 h, 10 µM",[4],94.6%
same,"viability at 24 h, 25 µM",[4],94.3%
same,"viability at 24 h, 35 µM",[4],83.3%
same,"viability at 24 h, 50 µM",[4],72.5%
CCc1ccccc1-c1nc(CN[C@@H]2C[C@@H]3C[C@H]([C@H]2C)C3(C)C)c(C)o1 [Compound 2],viability at 5 µM,[3],57%
same,viability at 15 µM,[3],9.68%
same,viability at 30 µM,[3],0.112%
same,LD50 ex vivo S. mansoni 21 days,[3],7.2 ± 0.30 µM
same,"viability at 24 h, 5 µM",[4],99.8%
same,"viability at 24 h, 10 µM",[4],98.9%
same,"viability at 24 h, 25 µM",[4],95.6%
same,"viability at 24 h, 35 µM",[4],75.4%
same,"viability at 24 h, 50 µM",[4],53.1%
Cc1oc(-c2ccc3ccccc3c2)nc1CNC1CCCCCC1 [Compound 5],"% Activity (ID list), D0",TGR [1]; [5],94.7% and 95.5% and 104.1%
same,"% Inhibition (ID list), D0",TGR [1]; [5],5.3% and 4.5% and -4.1%
same,"% Activity (ID list), D60",TGR [1]; [6],114.3% and 110.2%
same,"% Inhibition (ID list), D60",TGR [1]; [6],-11.2% and -14.3% and -10.2%
same,"Inhibitor (rate), 0 min",TGR [1],0.0437 and 0.04487 and 0.04514
same,"% Activity, 0 min",TGR [1],94.6912% and 95.4681% and 104.129%
same,"Inhibitor (rate), 60 min",TGR [1],0.04807 and 0.05093 and 0.05141
same,"% Activity, 60 min",TGR [1],111.196% and 114.27% and 110.156%
same,"Inhibitor (rate), -15",TGR [1],0.01816 and 0.01807 and 0.01832
same,"% Activity, -15",TGR [1],52.6988% and 50.0277% and 51.6493%
same,% Activity (ID list),TGR [1]; list for plotting,52.7% and 50.0% and 51.6%
same,% Inhibition (ID list),TGR [1]; list for plotting,47.3% and 50.0% and 48.4%
same,"rate, 0.5 hr",TGR [2],0.06403 and 0.06491 and 0.06611
same,"avg % inhib, 0.5 hr",TGR [2],19.3871%
same,"% inhib, 0.5 hr",TGR [2],19.4895% and 20.5216% and 18.1503%
same,"rate, 1 hr",TGR [2],0.05507 and 0.05598 and 0.05641
same,"avg % inhib, 1 hr",TGR [2],24.7276%
same,"% inhib, 1 hr",TGR [2],25.2173% and 23.9092% and 25.0565%
same,"rate, 2 hr",TGR [2],0.04485 and 0.04477 and 0.04629
same,"avg % inhib, 2 hr",TGR [2],32.9849%
same,"% inhib, 2 hr",TGR [2],32.4141% and 34.3548% and 32.1858%
same,"rate, 3 hr",TGR [2],0.03515 and 0.03538 and 0.0359
same,"avg % inhib, 3 hr",TGR [2],39.3918%
same,"% inhib, 3 hr",TGR [2],39.6774% and 39.4903% and 39.0078%
same,"rate, 6 hr",TGR [2],0.02164 and 0.02197 and 0.02345
same,"avg % inhib, 6 hr",TGR [2],53.9938%
same,"% inhib, 6 hr",TGR [2],54.1525% and 54.5887% and 53.2403%
same,"rate, 24 hr",TGR [2],0.00977 and 0.01005 and 0.01035
same,"avg % inhib, 24 hr",TGR [2],73.1913%
same,"% inhib, 24 hr",TGR [2],73.884% and 73.0491% and 72.6408%
same,viability at 5 µM,[3],65.4%
same,viability at 15 µM,[3],52.1%
same,viability at 30 µM,[3],36.8%
same,LD50 ex vivo S. mansoni 21 days,[3],16.9 ± 2.80 µM
